Source: US8653046B2, “Controlling transgene expression across the skin” (ETH Zurich, priority 2009, dated 2014)

Legend:
TtgA2 (TtgR-p65) = test: PEACE: SEAP expression after transient co-transfection of pMG10 and pMG18 (PSV40-TtgA2-pA); format: cell-based, Pseudomonas putida DOT-T1E; conditions: 48 h
Description: Three different transactivators are designed, harboring either the VP16 (TtgA1; pMG11, TtgR-VP16) (Triezenberg S. J. et al., loc. cit.), the p65 (TtgA2; pMG18, TtgR-p65) (Urlinger S., et al., 2000, Gene 247(1-2):103-110) or the human E2F4 (TtgA3; pMG19, TtgR-E2F4) (Akagi K., Kanai M., Saya H., Kozu T., Berns A., 2001, Nucleic Acids Res 29(4):e23) transactivation domains. pMG11, pMG18 or pMG19 are co-transfected with pMG10 (PTtgR1-SEAP-pA) into CHO-K1, HEK-293 as well as primary human fibroblasts and keratinocytes, and SEAP expression is profiled after 48 h of cultivation in the presence or absence of 50 μM phloretin. […] All transactivators mediate similar basal expression levels when phloretin is […] in the medium, but due to their cell-type specificity and graded maximum transcription-initiation capacities, the three transactivators offer a selection of defined expression windows.

[1] = rodents, cited from earlier work
[2] = tested on: macrolide-responsive control system (ET1, E-VP16; PETR3-SAMY-pA); test: Compatibility test: macrolide-responsive (EOFF) SAMY production in CHO-PEACE8 (pWW35, pBP100); format: cell-based; conditions: CHO-PEACE8 transiently transfected with macrolide-responsive control system; Phl 50 μM, EM 2 μg/mL; 48 h; 100 = no inducer
Description: To evaluate the functional compatibility of PEACE with the established tetracycline— [TETOFF; Gossen M., Bujard H., 1992, Proc Natl Acad Sci USA 89(12):5547-5551] and macrolide— [EOFF; Weber W., et al., 2002, Nat Biotechnol 20(9):901-907] responsive expression circuits CHO-PEACE8 is transiently transfected, transgenic for phloretin-responsive SEAP expression, with either the TETOFF-(pSAM200, PSV40-tTA-pA; pBP99, PhCMV*-1-SAMY-pA) or the EOFF-(PWW35, PSV40-ET1-pA; pBP100, PETR3-SAMY-pA) system set to control the Bacillus stearothermophilus-derived secreted α-amylase (SAMY) in response to tetracycline and erythromycin, respectively. SEAP and SAMY expression are scored 48 h after cultivation of the transfected populations in the presence (50 μM; 2 μg/mL) or absence of the inducer molecules (phloretin, tetracycline, erythromycin).

## O=C(CCc1ccc(O)cc1)c1c(O)cc(O)cc1O [phloretin, 3-[4-hydroxyphenyl]-1-[2,4,6-trihydroxyphenyl]-1-propanone]
TtgA2 (TtgR-p65); CHO-K1, phloretin 50 μM
  SEAP Production: 0.8 ± 0.05 U/L
TtgA2 (TtgR-p65); HEK-293, phloretin 50 μM
  SEAP Production: 1.9 ± 0.1 U/L
TtgA2 (TtgR-p65); HaCaT, phloretin 50 μM
  SEAP Production: 0.5 ± 0.05 U/L
TtgA2 (TtgR-p65); human primary fibroblasts, phloretin 50 μM
  SEAP Production: 0.2 ± 0.02 U/L
TtgA2 (TtgR-p65); human primary keratinocytes, phloretin 50 μM
  SEAP Production: 0.3 ± 0.02 U/L
[1]
  half-life in vivo: rather short half-life in vivo
[1]; dermal administration
  systemic distribution after dermal administration: systemically spread
[2]
  Relative SAMY Production (%): 100.6 ± 7.0%
